Patent US8871683B2, “Dicamba herbicide composition” (Nufarm Australia Limited, priority 2008, dated 2014)

Assay: Low temperature (cold storage) stability testing, CIPAC Method 39.3 (1999)
Format: physicochemical
Settings: for cold temperature stability at 0° C.: 750 g/L Dicamba (based on acid equivalent); for cold storage / low temperature stability at 0° C.: Dicamba 800 g/L acid equivalent
Protocol: Compositions described in the Examples were examined by the CIPAC Method 39.3 (1999) the procedure of which is noted below.
Transfer 100±1.0 ml of the formulation to the tube and insert the stopper. Cool to 0±2° C. in the refrigerator (Note 2). If the sample contains a dissolved crystalline pesticide, remove the tube from the refrigerator after 24 hours, take off the stopper, add a small crystal of the pure or technical pesticide (Note 3) and replace the stopper. Replace the tube in the refrigerator and allow it to remain at 0±2° C. for a total period of 7 days (Note 4).
At the end of this time, note the volume and nature of any separated material. If the liquid phase is not homogeneous, note the volume of each layer. If there is any separated material, then allow the tube to reach room temperature over a period of 24 hours (Note 5), invert once and again note the volume and nature of any separated material. • Note 1 A domestic refrigerator is often unsuitable because the on/off cycle may cover a range larger than 4° C. • Note 2 Alternatively a graduated emulsion tube meeting BS 658 class B, type 1 (Crow Receiver) may be used. • Note 3 A crystal from the commercial manufacturing process is preferred. Alternatively a crystal separated from the formulation e.g. by distillation of the solvent may be used. • Note 4 Other temperature-storage period combinations may be specified. • Note 5 Room temperature being defined as 23±2° C. Note any temperature outside this range.
Low temperature stability testing was carried out in accordance with the Standard CIPAC Method 39.3 (1999) and the resulting percentage crystallisation is reported in Table 3.

SMILES	cold temperature stability at 0° C.	cold storage / low temperature stability at 0° C.
CN.COc1c(Cl)ccc(Cl)c1C(=O)O [MMA salt]	not stable	Neither of the individual DMA or MMA salts were stable
CNC.COc1c(Cl)ccc(Cl)c1C(=O)O [DMA salt]	not stable	Neither of the individual DMA or MMA salts were stable
